From US7833795B2, “Assessment of cardiovascular risk using isoprostane biomarkers and COX-2 selective inhibitors” (The Trustees of the University of Pennsylvania, priority 2004, dated 2010)

Columns and labels:
Male Fisher 344 rats [1] = test: Urinary MDA by HPLC with spectrophotometry; type: in vivo, rat; settings: for urinary MDA: meclofenamic acid pretreatment
Description: (§1) Animals and treatment protocol: Male Fisher 344 rats (260-280 g) obtained from Charles River Laboratories (Raleigh, N.C.) were used in all experiments. The animals were housed three to a cage. Autoclaved hardwood bedding was used in solid-bottom polycarbonate cages with filter tops. Animal rooms were maintained at 20-25° C. with 35-70% relative humidity with alternating 12-hour light and dark cycles. The rats had free access to deionized, reverse-osmosis-treated water and received autoclaved NIH 31 rodent chow (Zeigler Bros., Gardners, Pa.) ad libitum. For all experiments, rats were fasted overnight and then administered intraperitoneal injections of carbon tetrachloride in canola oil. Control rats received an equal volume of canola oil. Fasting continued throughout the experiment. Rats were anesthetized with Nembutal (0.1 ml/100 g body weight) and 5 ml blood was removed from the dorsal aorta proximal to its bifurcation into the common iliac arteries.
(§2) Indomethacin pretreatment: The indomethacin regimen used has been previously shown to inhibit COX activity in rats by 90% (dose of 5 mg/kg s.c. 24 hours, 12 hours, and 2 hours prior to the injection of CCl4) (Jackson, 1989, J. Pharmacol. Exp. Ther. 250: 9-21). An additional booster dose was injected 8 hours after the last injection of CCl4 for the measurements performed 16 hours after treatment with CCl4.
(§3) Meclofenamic acid pretreatment: Meclofenamic acid was injected at a dose of 5 mg/kg i.p. 12 h and 2 h prior to the injection of CCl4.
(§4) Carbon tetrachloride (CCL4) treatment: Animals from each of the three dose groups (Control-canola oil, 120 mg/kg CCl4 i.p. and 1200 mg/kg CCl4 i.p.) were investigated at three time points (2, 7, and 16 hours after CCl4 injection). Indomethacin-pretreated rats were also investigated at the same three time points, and the meclofenamic acid-pretreated rats were investigated at one time point (7 hours). Each group consisted of five rats for each analysis, except the meclofenamic acid pretreatment group which consisted of six rats. Animal treatment, sample preparation, assessment of liver histology and serum enzyme activities are described elsewhere (Kadiiska et al., 2000, Free Radic. Biol. Med. 28: 838-845; Jackson, 1989, J. Pharmacol. Exp. Ther. 250: 9-21) and were carried out at NIEHS, Research Triangle Park, N.C.
(§5) Urine sample preparation: The day prior to treatment, both experimental and control animals were placed in stainless steel metabolic cages especially designed for urine collection. For Experimental Example 2, animals were placed in metabolic cages immediately after the last injection of indomethacin or meclofenamic acid. Urine was collected (in dark vials) from the animals during the following intervals: 2 to 7 hours and 7 to 16 hours after CCl4 or canola oil (controls) treatment. Urine samples from indomethacin-pretreated rats were collected from 2 to 7 hours and 7 to 16 hours after the injection of CCl4, whereas samples from meclofenamic-acid-pretreated rats were collected only from 2 to 7 hours after the injection. All urine samples were immediately frozen on dry ice and stored at −70° C.
Urinary MDA was analyzed using high pressure liquid chromatography (HPLC). To 500 μl urine samples, 25 μl BHT and 750 μl 0.5% TBA solution were added, in this order. Samples were incubated at 60° C. for 60 minutes. After cooling, chloroform (750 μl) was added and mixed well. Following centrifugation, the aqueous layer was removed and used for HPLC analysis (column […]; mobile phase, 6:4(v/v) 0.04 M acetate buffer (pH 5.5)/MeOH; detection, 532 nm). The procedure was developed and performed by OXIS Research, Portland, Oreg.

Male Fisher 344 rats [2] = test: Urinary free plus esterified 8-iso-PGF2α by immunoassay; type: in vivo, rat
Description: as §1, §2, §3, §4, §5
Urinary 8-iso-PGF2α concentrations were measured by the competitive immunoassay procedure in which 8-iso-PGF2α conjugated to alkaline phosphatase competed with the test analyte for antibody specific for the isoprostane. The anti-8-iso-PGF2α antibody was captured by anti-Fc antibodies immobilized on a microtiter plate. The assay was developed by Assay Designs, Inc., Ann Arbor, Mich. and performed at OXIS Research, Portland, Oreg.
In an additional method not recited in Example 1, an immunoassay was used to measure the sum of free plus esterified 8-iso-PGF2α. The immunoassay used anti-8-iso-PGF2α antibody was developed by Assay Designs, Inc., Ann Arbor, Mich., and performed at Oxis Research, Portland, Oreg.

Male Fisher 344 rats [3] = test: Plasma free 8-iso-PGF2α by GC/NICI-MS; type: in vivo, rat; settings: meclofenamic acid 5 mg/kg i.p. pretreatment; only higher CCl4 dose, 7 h
Description: as §1, §2, §3, §4
(§6) Plasma sample preparation: Blood (5 ml) was drawn through single draw Vacutainer® needles (21 Gauge) into open Vacutainer® blood collection tubes containing heparin. The tubes were gently inverted 2-3 times for mixing and immediately placed on ice. Blood was centrifuged (2,000 rpm for 10 minutes at 4° C.) no more than 30 minutes after collection, and the plasma was collected, frozen on dry ice and stored at −70° C.
Two slightly different methods developed in two different laboratories were used to measure the effect of CCl4 on the plasma levels of free 8-iso-PGF2α, and the sum of free plus esterified 8-iso-PGF2α (also known as 8-epi-PGF2α and iPF2α-III and 15-F2t-IsoP). Free 8-iso-PGF2α concentrations in plasma were determined by gas chromatography/negative ion chemical ionization mass spectrometry (GC/NICI-MS) by the method of Morrow et al. (1999, Methods Enzymol. 300: 3-12). Briefly, [2H4] 8-iso-PGF2α internal standard was added to plasma and F2-isoprostanes were extracted with a C18 Sep-Pak® Cartridge (Waters Associates, Milford, Mass.). The extracted F2-isoprostanes were converted to pentafluorobenzyl ester and purified by TLC after which they were converted to a trimethylsilyl ether derivative and subsequently analyzed by GC-MS. The assay was developed and performed at Vanderbilt University, Nashville, Tenn.

Male Fisher 344 rats [4] = test: Urinary free 8-iso-PGF2α by radioimmunoassay; type: in vivo, rat
Description: as §1, §3
as §4, with “N.C. […]” for “N.C.”
In Experimental Example 2, urine samples were also analyzed for free 8-iso-PGF2α, without any extraction, by radioimmunoassay (Basu, 1998, Prost. Leuk. Ess. Fatty Acids. 58: 319-325). […]

Male Fisher 344 rats [5] = test: Urinary 8,12-iso-iPF2α-VI by LC/MS/MS; type: in vivo, rat; settings: for urinary 8,12-iso-iPF2α-VI, pretreated vs non-pretreated: indomethacin pretreatment
Description: as §1, §2, §3, §4, §5
Analysis of 8,12-iso-iPF2α-VI, which is, along with its epimer 5-epi-8,12-iso-iPF2α-VI, the most prevalent PGF-ring isoprostane in human urine, was accomplished by addition of a tetradeuterated analog, solid phase extraction and quantitation using liquid chromatography and tandem mass spectroscopy (LC/MS/MS) (Li et al., 1999, Proc. Natl. Acad. Sci. USA 96: 13381-13386). The measurements were performed at the University of Pennsylvania, Philadelphia, Pa.

Male Fisher 344 rats [6] = test: Plasma free plus esterified 8-iso-PGF2α by GC/MS; type: in vivo, rat
Description: as §1, §2, §3, §4, §6
Measurement of the sum of free plus esterified 8-iso-PGF2α in plasma were performed using an improved GC/MS-based analysis for the quantitation of this isoprostane in plasma. A detailed protocol for this extraction and quantitation has been published (Parker et al., 2001, Mol. Biotechnol. 18: 105-118). Measurements of the sum of free plus esterified 8-iso-PGF2α in plasma were performed at NIEHS, Research Triangle Park, N.C.

Male Fisher 344 rats [7] = test: Plasma MDA, TBA colorimetric assay with 3rd derivative spectroscopy; type: in vivo, rat; settings: indomethacin pretreatment
Description: as §1, §4, §6
Two colorimetric-based assays, using third derivative spectroscopy, were also used to measure MDA in plasma. The TBA colorimetric assay is designed to measure free MDA and MDA-protein adducts (Schiff base), and therefore includes mild acid hydrolysis. The Bioxytech® LPO-586™ colorimetric assay is based upon the reaction of the chromogenic reagent N-methyl-2-phenylindole (NMPI) with MDA at 45° C. One molecule of free MDA combines with 2 molecules of the chromogenic agent to produce a stable chromophore with a maximal absorbance at 586 nm. In both assays, the concentration of MDA was determined with 3rd derivative spectroscopy. Both assays were developed by OXIS Research Inc., Portland, Oreg., and were performed at OXIS and at Loyola University Medical Center, Maywood, Ill.

Male Fisher 344 rats [8] = test: Plasma MDA by GC/NICI-MS; type: in vivo, rat; settings: indomethacin pretreatment; controls at 7 and 16 h, lower CCl4 dose at 2 and 16 h
Description: as §1, §2, §4, §6
Plasma MDA concentrations were also measured by using gas chromatography/negative ion chemical ionization mass spectroscopy (GC/NICI-MS) as described by Yeo et al. (Yeo et al., 1994, Anal. Biochem. 220: 391-396). The stable isotope internal standard [^2H2] MDA and an antioxidant (2,6-tert-butyl-4-methylphenol) were added to the plasma samples. The samples were then incubated at room temperature in 6.6 mol H2SO4 for 10 minutes to hydrolyze the aldehydes from the proteins. Plasma MDA was converted to a stable pentafluorophenyl hydrazine derivative which was quantified by using the GC-MS in the negative chemical ionization mode. The assay was performed at Children's Hospital Oakland Research Institute, Oakland, Calif.

COX = settings: 5 mg/kg s.c. 24, 12 and 2 hours prior to CCl4; cited from earlier work
[9] = meclofenamic acid pretreatment, 7 h

SMILES	urinary MDA (Male Fisher 344 rats [1]; higher dose of CCl4, 7 h)	urinary MDA (Male Fisher 344 rats [1]; low dose of CCl4, 7 h)	urinary free plus esterified 8-iso-PGF2α (immunoassay), pretreated vs non-pretreated (Male Fisher 344 rats [2]; meclofenamic acid pretreatment, high CCl4 dose, 7 h)	plasma free 8-iso-PGF2α, pretreated vs non-pretreated (Male Fisher 344 rats [3])	basal urinary free 8-iso-PGF2α (radioimmunoassay) vs control group (Male Fisher 344 rats [4]; meclofenamic acid-treated rats, no CCl4)	urinary free 8-iso-PGF2α (radioimmunoassay) (Male Fisher 344 rats [4]; meclofenamic pretreatment, both doses of CCl4, 7 h)	CCl4-induced urinary 8,12-iso-iPF2α-VI (Male Fisher 344 rats [5]; [9])	plasma free plus esterified 8-iso-PGF2α, effect compared with that on free 8-iso-PGF2α (Male Fisher 344 rats [6]; [9])	urinary MDA, pretreated vs non-pretreated (Male Fisher 344 rats [1]; indomethacin pretreatment, controls and low-dose CCl4, both time points)	urinary free plus esterified 8-iso-PGF2α (immunoassay), pretreated vs non-pretreated (Male Fisher 344 rats [2]; indomethacin pretreatment, controls at 7 h, higher CCl4 dose at both time points)	plasma MDA (third derivative spectroscopy), pretreated vs non-pretreated (Male Fisher 344 rats [7])	plasma MDA (GC/MS), pretreated vs non-pretreated rats (Male Fisher 344 rats [8])	urinary 8,12-iso-iPF2α-VI, pretreated vs non-pretreated (Male Fisher 344 rats [5]; controls, earlier time point)	urinary 8,12-iso-iPF2α-VI, pretreated vs non-pretreated (Male Fisher 344 rats [5]; higher dose CCl4)	urinary 8,12-iso-iPF2α-VI, pretreated vs non-pretreated (Male Fisher 344 rats [5]; low dose CCl4)	plasma free plus esterified 8-iso-PGF2α, pretreated vs non-pretreated (Male Fisher 344 rats [6]; indomethacin pretreatment, only higher CCl4 dose at 2 and 7 h)	inhibition of COX activity in rats (COX) [%]
Cc1ccc(Cl)c(Nc2ccccc2C(=O)O)c1Cl [meclofenamic acid]	significant inhibition	increased	significant decrease	significant decrease	lower basal levels	increased	increased	similar									
COc1ccc2c(c1)c(CC(=O)O)c(C)n2C(=O)c1ccc(Cl)cc1 [indomethacin, 1-[p-chlorobenzoyl]-5-methoxy-2-methylindole-3-acetic acid]									increase in MDA excretion	Suppression	similarly decreased	statistically significant decrease	increased	markedly inhibited	no effect	statistically significant suppression	90
